# Experimental data as given in the supplement of paper PMC10307832.
# Experiments:
# Experiment in all cases: relative viability (nuclei count vs DMSO), 5 days (fraction); higher = more cells survive
# [1] = compound: CN[C@@H]1C[C@H]2O[C@@](C)([C@@H]1OC)n1c3ccccc3c3c4c(c5c6ccccc6n2c5c31)C(=O)NC4 [Staurosporine] + CC(C)C[C@H](NC(=O)[C@H](Cc1ccccc1)NC(=O)c1cnccn1)B(O)O [Bortezomib] (partner 0.002 µM)
# Summary of the method: (§1)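 After 5 days of treatment, lung cancer cells in 1536-well plates were fixed and stained in a single step (final 0.05% Triton X-100, 1% formaldehyde, 1 ug/ml Hoechst) and their nuclei counted on 4× images. Treatment had been applied by pin tool the day after seeding as one drug alone or as a fixed anchor-drug dose with five library-drug doses (not always all listed) in √10 steps. Relative viability is the nuclei count of treated wells divided by that of vehicle wells, and values are medians of duplicate plates.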
# Sulindac + Decitabine = compound: CC1=C(CC(=O)O)c2cc(F)ccc2/C1=C\c1ccc([S+](C)[O-])cc1 [Sulindac] + Nc1ncn([C@H]2C[C@H](O)[C@@H](CO)O2)c(=O)n1 [Decitabine] (partner 2 µM)
# Summary of the method: as §1
# [2] = compound: CN[C@@H]1C[C@H]2O[C@@](C)([C@@H]1OC)n1c3ccccc3c3c4c(c5c6ccccc6n2c5c31)C(=O)NC4 [Staurosporine] + COc1cc2c(Oc3ccc(NC(=O)C4(C(=O)Nc5ccc(F)cc5)CC4)cc3F)ccnc2cc1OCCCN1CCOCC1 [Foretinib] (partner 0.25 µM)
# Summary of the method: as §1
Cell Line,relative viability ([1]; first compound 0.005 µM),relative viability ([1]; first compound 0.01581 µM),relative viability ([1]; first compound 0.05 µM),relative viability ([1]; first compound 0.1581 µM),relative viability ([1]; first compound 0.5 µM),relative viability (Sulindac + Decitabine; first compound 0.08 µM),relative viability (Sulindac + Decitabine; first compound 0.253 µM),relative viability (Sulindac + Decitabine; first compound 0.8 µM),relative viability (Sulindac + Decitabine; first compound 2.53 µM),relative viability (Sulindac + Decitabine; first compound 8 µM),relative viability ([2]; first compound 0.005 µM),relative viability ([2]; first compound 0.01581 µM),relative viability ([2]; first compound 0.05 µM),relative viability ([2]; first compound 0.1581 µM),relative viability ([2]; first compound 0.5 µM)
COR-L23,0.69,0.282,0.272,0.104,0.0851,0.436,0.446,0.425,0.421,0.526,0.513,0.459,0.376,0.119,0.0927
HCC-44,0.708,0.367,0.169,0.142,0.0976,0.976,0.909,0.871,0.918,0.961,–,–,–,–,–
LOU-NH91,0.519,0.461,0.54,0.369,0.374,0.776,0.8,0.715,0.798,0.873,0.923,0.816,0.627,0.512,0.238
NCI-H520,0.716,0.128,0.307,0.207,0.117,0.516,0.568,0.467,0.431,0.505,0.692,0.759,0.548,0.409,0.18
NCI-H1299,1.1,1.03,0.433,0.255,0.169,–,–,–,–,–,0.893,0.352,0.231,0.121,0.132
LK-2,–,–,–,–,–,0.334,0.361,0.277,0.239,0.306,1.07,–,1.09,0.437,0.409
NCI-H358,–,–,–,–,–,0.235,0.2,0.196,0.186,0.239,0.835,0.241,0.11,0.0647,0.0577
SK-MES-1,–,–,–,–,–,0.378,0.418,0.304,0.436,0.386,0.626,0.581,0.293,0.333,0.142
SW 900,–,–,–,–,–,0.449,0.432,–,–,0.489,0.388,0.331,0.406,0.22,0.144
NCI-H1792,1.05,0.797,0.372,0.182,0.196,0.476,0.632,–,0.581,0.417,–,–,–,–,–
NCI-H1703,0.215,0.165,0.11,0.157,0.111,–,–,–,–,–,0.303,0.246,0.196,0.2,0.156
EBC-1,0.308,0.234,0.185,0.2,0.14,–,–,–,–,–,0.107,0.102,0.103,0.0621,0.0633
NCI-H1395,–,–,–,–,–,0.726,0.689,0.664,0.659,0.832,0.943,0.812,0.453,0.416,0.27
IA-LM,0.188,–,0.238,0.131,0.07,–,–,–,–,–,0.423,0.109,0.139,0.1,0.0733
NCI-H2170,–,–,–,–,–,0.521,0.461,0.436,0.434,0.455,1.04,–,0.866,0.382,0.307
NCI-H1793,–,–,–,–,–,0.406,0.521,–,0.486,0.588,0.784,–,0.474,0.217,0.353
